# Data published in article PMC5218480 (PLoS ONE, 2017).
# Test system: MV-4-11 cells
# Experiment: Gene expression microarray analysis (Affymetrix PrimeView) and GSEA
# Format: cell-based, human
# Set-up: RFU PODN (11730768_x_at) / Fold change /veh PODN (11730768_x_at) / RFU LINC00158 (11744669_a_at) / Fold change /veh LINC00158 (11744669_a_at) / RFU DUSP10 (11751237_a_at) / Fold change /veh DUSP10 (11751237_a_at) / RFU ID3 (11757404_x_at) / Fold change /veh ID3 (11757404_x_at) / RFU PLEKHG5 (11737974_s_at) / Fold change /veh PLEKHG5 (11737974_s_at) / RFU LRRC4B (11730491_at) / Fold change /veh LRRC4B (11730491_at) / RFU GIMAP4 (11747438_a_at) / Fold change /veh GIMAP4 (11747438_a_at) / RFU KRT8 (11758183_x_at) / Fold change /veh KRT8 (11758183_x_at) / RFU CNN1 (11734310_a_at) / Fold change /veh CNN1 (11734310_a_at) / RFU VPS37D (11726825_at) / Fold change /veh VPS37D (11726825_at) / RFU C10orf10 (11716522_x_at) / Fold change /veh C10orf10 (11716522_x_at) / RFU KIR2DL2 /// KIR2DL4 /// KIR2DL5A /// KIR2DL5B /// KIR2DS1 /// KIR2DS2 /// KIR2DS3 /// KIR2DS4 /// KIR3DL3 /// KIR3DL3 /// KIR3DS1 (11738374_at) / Fold change /veh KIR2DL2 /// KIR2DL4 /// KIR2DL5A /// KIR2DL5B /// KIR2DS1 /// KIR2DS2 /// KIR2DS3 /// KIR2DS4 /// KIR3DL3 /// KIR3DL3 /// KIR3DS1 (11738374_at) / RFU C1QL1 (11718748_at) / Fold change /veh C1QL1 (11718748_at) / RFU TMPRSS4 (11747572_a_at) / Fold change /veh TMPRSS4 (11747572_a_at) / RFU HAMP (11756126_x_at) / Fold change /veh HAMP (11756126_x_at) / RFU RNFT2 (11725882_a_at) / Fold change /veh RNFT2 (11725882_a_at) / RFU NR4A2 (11747474_a_at) / Fold change /veh NR4A2 (11747474_a_at) / RFU ABCC12 (11746883_a_at) / Fold change /veh ABCC12 (11746883_a_at) / RFU TMEM136 (11760407_x_at) / Fold change /veh TMEM136 (11760407_x_at) / RFU CLDN22 /// WWC2 (11732394_at) / Fold change /veh CLDN22 /// WWC2 (11732394_at) / RFU HLA-DPB1 (11760878_x_at) / Fold change /veh HLA-DPB1 (11760878_x_at) / RFU SPINT1 (11716480_a_at) / Fold change /veh SPINT1 (11716480_a_at) / RFU GAP43 (11754022_s_at) / Fold change /veh GAP43 (11754022_s_at) / RFU A4GNT (11735810_at) / Fold change /veh A4GNT (11735810_at) / RFU PRB3 (11715151_x_at) / Fold change /veh PRB3 (11715151_x_at) / RFU TUBB4B (11761932_at) / Fold change /veh TUBB4B (11761932_at) / RFU CAPN14 (11732068_a_at) / Fold change /veh CAPN14 (11732068_a_at) / RFU TMCC2 (11721928_a_at) / Fold change /veh TMCC2 (11721928_a_at) / RFU IRGQ (11745062_a_at) / Fold change /veh IRGQ (11745062_a_at) / RFU FAM174B (11720279_a_at) / Fold change /veh FAM174B (11720279_a_at) / RFU TMPRSS4 (11748680_a_at) / Fold change /veh TMPRSS4 (11748680_a_at) / RFU FAM212B (11763350_a_at) / Fold change /veh FAM212B (11763350_a_at) / RFU PLEKHG5 (11743358_a_at) / Fold change /veh PLEKHG5 (11743358_a_at) / RFU ZSCAN30 (11745921_a_at) / Fold change /veh ZSCAN30 (11745921_a_at) / RFU CMKLR1 (11741424_a_at) / Fold change /veh CMKLR1 (11741424_a_at) / RFU LOC101060620 /// MAPK8IP1 (11723275_at) / Fold change /veh LOC101060620 /// MAPK8IP1 (11723275_at) / RFU SPTSSB (11747773_x_at) / Fold change /veh SPTSSB (11747773_x_at) / RFU PRSS12 (11739890_at) / Fold change /veh PRSS12 (11739890_at) / RFU BIN1 (11741810_x_at) / Fold change /veh BIN1 (11741810_x_at) / RFU WNT11 (11732464_a_at) / Fold change /veh WNT11 (11732464_a_at) / RFU C10orf10 (11716521_a_at) / Fold change /veh C10orf10 (11716521_a_at) / RFU C5orf56 (11738089_at) / Fold change /veh C5orf56 (11738089_at) / RFU CYB561 (11721691_x_at) / Fold change /veh CYB561 (11721691_x_at) / RFU ANKRD19P (11752326_a_at) / Fold change /veh ANKRD19P (11752326_a_at) / RFU OR2T12 /// OR2T33 /// OR2T8 (11738714_s_at) / Fold change /veh OR2T12 /// OR2T33 /// OR2T8 (11738714_s_at) / RFU VCAN (11748164_a_at) / Fold change /veh VCAN (11748164_a_at) / RFU JSRP1 (11732532_at) / Fold change /veh JSRP1 (11732532_at) / RFU KRTAP10-11 (11738290_x_at) / Fold change /veh KRTAP10-11 (11738290_x_at) / RFU MYO3A (11730013_a_at) / Fold change /veh MYO3A (11730013_a_at) / RFU EBF3 (11725865_a_at) / Fold change /veh EBF3 (11725865_a_at) / RFU CAMK2N1 (11719241_x_at) / Fold change /veh CAMK2N1 (11719241_x_at) / RFU C5orf56 (11738088_a_at) / Fold change /veh C5orf56 (11738088_a_at) / RFU OLFML3 (11715873_a_at) / Fold change /veh OLFML3 (11715873_a_at) / RFU LOC100653217 /// NTM (11731650_a_at) / Fold change /veh LOC100653217 /// NTM (11731650_a_at) / RFU MAPK11 (11762145_a_at) / Fold change /veh MAPK11 (11762145_a_at) / RFU FIZ1 (11724087_x_at) / Fold change /veh FIZ1 (11724087_x_at) / RFU OASL (11726364_x_at) / Fold change /veh OASL (11726364_x_at) / RFU SOX15 (11748057_x_at) / Fold change /veh SOX15 (11748057_x_at) / RFU CD79A (11719716_a_at) / Fold change /veh CD79A (11719716_a_at) / RFU HIST1H1D (11736915_at) / Fold change /veh HIST1H1D (11736915_at) / RFU CASKIN2 (11723855_a_at) / Fold change /veh CASKIN2 (11723855_a_at) / RFU LOC730098 (11760151_x_at) / Fold change /veh LOC730098 (11760151_x_at) / RFU OR4N2 (11742367_at) / Fold change /veh OR4N2 (11742367_at) / RFU PRRT2 (11749266_a_at) / Fold change /veh PRRT2 (11749266_a_at) / RFU SNX32 (11753110_a_at) / Fold change /veh SNX32 (11753110_a_at) / RFU CDHR5 (11726645_a_at) / Fold change /veh CDHR5 (11726645_a_at) / RFU RCAN1 (11760418_a_at) / Fold change /veh RCAN1 (11760418_a_at) / RFU FAM167A (11723789_a_at) / Fold change /veh FAM167A (11723789_a_at) / RFU FAM26E (11764081_at) / Fold change /veh FAM26E (11764081_at) / RFU ISYNA1 (11749810_s_at) / Fold change /veh ISYNA1 (11749810_s_at) / RFU ACY1 (11761880_at) / Fold change /veh ACY1 (11761880_at) / RFU 11764098_at / Fold change /veh 11764098_at / RFU SAMD14 (11745864_x_at) / Fold change /veh SAMD14 (11745864_x_at) / RFU NPB (11741838_a_at) / Fold change /veh NPB (11741838_a_at) / RFU TMPRSS6 (11731388_a_at) / Fold change /veh TMPRSS6 (11731388_a_at) / RFU KRTAP10-2 (11738614_at) / Fold change /veh KRTAP10-2 (11738614_at) / RFU ARHGAP8 /// PRR5-ARHGAP8 (11727945_x_at) / Fold change /veh ARHGAP8 /// PRR5-ARHGAP8 (11727945_x_at) / RFU KRTAP5-7 /// NADSYN1 (11734609_at) / Fold change /veh KRTAP5-7 /// NADSYN1 (11734609_at) / RFU RASL12 (11751679_a_at) / Fold change /veh RASL12 (11751679_a_at) / RFU CDKN2B (11736163_a_at) / Fold change /veh CDKN2B (11736163_a_at) / RFU PRF1 (11729649_at) / Fold change /veh PRF1 (11729649_at) / RFU, ZNF638 /// ZNF638-IT1 / Fold change vs veh, ZNF638 /// ZNF638-IT1 / RFU, PANK3 / Fold change vs veh, PANK3 / RFU, SH3YL1 / Fold change vs veh, SH3YL1 / RFU, ZEB2 / Fold change vs veh, ZEB2 / RFU, NRIP1 / Fold change vs veh, NRIP1 / RFU, PTTG1IP / Fold change vs veh, PTTG1IP / RFU, CAPN2 / Fold change vs veh, CAPN2 / RFU, MED14 / Fold change vs veh, MED14 / RFU, SNORA58 / Fold change vs veh, SNORA58 / RFU, C1orf63 / Fold change vs veh, C1orf63 / RFU, LRRFIP1 / Fold change vs veh, LRRFIP1 / RFU, NDUFAF7 / Fold change vs veh, NDUFAF7 / RFU, SLC12A2 / Fold change vs veh, SLC12A2 / RFU, IBTK / Fold change vs veh, IBTK / RFU, ESF1 / Fold change vs veh, ESF1 / Fold change vs veh, TMEM50B / RFU, TAOK1 / Fold change vs veh, TAOK1 / RFU, ACBD3 / Fold change vs veh, ACBD3 / RFU, TMA16 / Fold change vs veh, TMA16 / RFU, RWDD3 / Fold change vs veh, RWDD3 / RFU, BCAT1 / Fold change vs veh, BCAT1 / RFU, EDEM3 / Fold change vs veh, EDEM3 / RFU, TMEM33 / Fold change vs veh, TMEM33 / RFU, WDR75 / Fold change vs veh, WDR75 / RFU, AHCTF1 / Fold change vs veh, AHCTF1 / RFU, TFRC / Fold change vs veh, TFRC / RFU, ZDHHC17 / Fold change vs veh, ZDHHC17 / RFU, NOM1 / Fold change vs veh, NOM1 / RFU, ARL8B / Fold change vs veh, ARL8B / RFU, ZBTB11 / Fold change vs veh, ZBTB11 / RFU, TAMM41 / Fold change vs veh, TAMM41 / RFU, KIAA1704 /// LOC100996395 / Fold change vs veh, KIAA1704 /// LOC100996395 / RFU, ING1 / Fold change vs veh, ING1 / RFU, TRMT61B / Fold change vs veh, TRMT61B / RFU, FUBP3 / Fold change vs veh, FUBP3 / RFU, TP53 / Fold change vs veh, TP53 / RFU, TNKS2 / Fold change vs veh, TNKS2 / RFU, ZFP14 / Fold change vs veh, ZFP14 / RFU, ACTR2 / Fold change vs veh, ACTR2 / RFU, PPP3R1 / Fold change vs veh, PPP3R1 / RFU, PIK3R1 / Fold change vs veh, PIK3R1 / RFU, HNRNPA1 / Fold change vs veh, HNRNPA1 / RFU, RNF170 / Fold change vs veh, RNF170 / RFU, ZNF28 / Fold change vs veh, ZNF28 / RFU, RNGTT / Fold change vs veh, RNGTT / RFU, OGT / Fold change vs veh, OGT / RFU, BRD1 / Fold change vs veh, BRD1 / RFU, MARS / Fold change vs veh, MARS / RFU, ZNF655 / Fold change vs veh, ZNF655 / RFU, FAHD1 / Fold change vs veh, FAHD1 / RFU, BDP1 / Fold change vs veh, BDP1 / RFU, LRRCC1 / Fold change vs veh, LRRCC1 / RFU, ARID1A / Fold change vs veh, ARID1A / RFU, ZNF146 / Fold change vs veh, ZNF146 / RFU, ZNF330 / Fold change vs veh, ZNF330 / RFU, GPN3 / Fold change vs veh, GPN3 / RFU, C9orf123 / Fold change vs veh, C9orf123 / RFU, N4BP2L2 / Fold change vs veh, N4BP2L2 / RFU, ARFIP1 / Fold change vs veh, ARFIP1 / RFU, FAM179B / Fold change vs veh, FAM179B / RFU, BCL10 / Fold change vs veh, BCL10 / RFU, UHRF1BP1L / Fold change vs veh, UHRF1BP1L / RFU, BET1 / Fold change vs veh, BET1 / RFU, CNOT2 / Fold change vs veh, CNOT2 / RFU, ZNF268 / Fold change vs veh, ZNF268 / Fold change vs veh, ZNF507 / RFU, DGCR2 / Fold change vs veh, DGCR2 / RFU, WDSUB1 / Fold change vs veh, WDSUB1 / Fold change vs veh, HSP90B1 /// MIR3652 / RFU, ADSS / Fold change vs veh, ADSS / RFU, GK / Fold change vs veh, GK / RFU, ZNF148 / Fold change vs veh, ZNF148 / RFU, TAF9 / Fold change vs veh, TAF9 / RFU, SLC1A5 / Fold change vs veh, SLC1A5 / RFU, SLMO2 / Fold change vs veh, SLMO2 / RFU, ABCC4 / Fold change vs veh, ABCC4 / RFU, LOC101060439 /// RAP1B / Fold change vs veh, LOC101060439 /// RAP1B / RFU, RFX7 / Fold change vs veh, RFX7 / RFU, GTPBP10 / Fold change vs veh, GTPBP10 / RFU, CNEP1R1 / Fold change vs veh, CNEP1R1 / RFU, BIVM-ERCC5 /// ERCC5 / Fold change vs veh, BIVM-ERCC5 /// ERCC5 / RFU, ILF3 / Fold change vs veh, ILF3 / RFU 11762660_at / Fold change /veh 11762660_at / RFU VCAN (11757783_s_at) / Fold change /veh VCAN (11757783_s_at) / RFU DDX43 (11728927_at) / Fold change /veh DDX43 (11728927_at) / RFU KRT8 (11758188_x_at) / Fold change /veh KRT8 (11758188_x_at) / RFU NKD1 (11759106_at) / Fold change /veh NKD1 (11759106_at) / RFU SRD5A1 (11742802_a_at) / Fold change /veh SRD5A1 (11742802_a_at) / RFU TPSAB1 /// TPSB2 (11721975_s_at) / Fold change /veh TPSAB1 /// TPSB2 (11721975_s_at) / RFU GSTM3 (11746129_a_at) / Fold change /veh GSTM3 (11746129_a_at) / RFU IL23R (11737362_x_at) / Fold change /veh IL23R (11737362_x_at) / RFU TMEM51 (11727254_a_at) / Fold change /veh TMEM51 (11727254_a_at) / RFU PIWIL2 (11732686_x_at) / Fold change /veh PIWIL2 (11732686_x_at) / RFU ORM1 (11744905_x_at) / Fold change /veh ORM1 (11744905_x_at) / RFU CCDC152 (11743942_at) / Fold change /veh CCDC152 (11743942_at) / RFU ECM1 (11717891_a_at) / Fold change /veh ECM1 (11717891_a_at) / RFU IL23R (11748794_a_at) / Fold change /veh IL23R (11748794_a_at) / RFU TNFAIP8L3 (11732012_x_at) / Fold change /veh TNFAIP8L3 (11732012_x_at) / RFU MBOAT4 (11741988_at) / Fold change /veh MBOAT4 (11741988_at) / RFU 11764193_at / Fold change /veh 11764193_at / RFU TMEM53 (11763286_at) / Fold change /veh TMEM53 (11763286_at) / RFU MAGEB2 (11727129_at) / Fold change /veh MAGEB2 (11727129_at) / RFU TMEM200A (11744735_a_at) / Fold change /veh TMEM200A (11744735_a_at) / RFU CCDC152 (11751479_a_at) / Fold change /veh CCDC152 (11751479_a_at) / RFU FAM211A (11726209_a_at) / Fold change /veh FAM211A (11726209_a_at) / RFU RGS16 (11746705_a_at) / Fold change /veh RGS16 (11746705_a_at) / RFU VCAN (11755009_s_at) / Fold change /veh VCAN (11755009_s_at) / RFU RHOB (11743442_s_at) / Fold change /veh RHOB (11743442_s_at) / RFU RGS16 (11720943_a_at) / Fold change /veh RGS16 (11720943_a_at) / RFU RGS16 (11720944_at) / Fold change /veh RGS16 (11720944_at) / RFU, VPS4B / Fold change vs veh, VPS4B / RFU, CREB1 / Fold change vs veh, CREB1 / RFU, DNAJC13 / Fold change vs veh, DNAJC13 / RFU, GNAQ / Fold change vs veh, GNAQ / RFU, CDK5R1 / Fold change vs veh, CDK5R1 / RFU, ZRANB3 / Fold change vs veh, ZRANB3 / RFU, CUL4A / Fold change vs veh, CUL4A / RFU, CCNY / Fold change vs veh, CCNY / RFU, UFL1 / Fold change vs veh, UFL1 / RFU, COG3 / Fold change vs veh, COG3 / RFU, DIAPH2 / Fold change vs veh, DIAPH2 / RFU, SKA2 / Fold change vs veh, SKA2 / RFU, AFF3 / Fold change vs veh, AFF3 / RFU, LMF1 / Fold change vs veh, LMF1 / RFU, IPO11 / Fold change vs veh, IPO11 / RFU, DFFB / Fold change vs veh, DFFB / RFU, FOXP1 / Fold change vs veh, FOXP1 / RFU, CARD8 / Fold change vs veh, CARD8 / RFU, STRN3 / Fold change vs veh, STRN3 / RFU, ADK / Fold change vs veh, ADK / RFU, RASSF2 / Fold change vs veh, RASSF2 / RFU, WIPF1 / Fold change vs veh, WIPF1 / RFU, LARP1B / Fold change vs veh, LARP1B / RFU, RASA1 / Fold change vs veh, RASA1 / RFU, RB1 / Fold change vs veh, RB1 / RFU, PPFIA1 / Fold change vs veh, PPFIA1 / RFU, MAT2A / Fold change vs veh, MAT2A / RFU, CCT5 / Fold change vs veh, CCT5 / RFU, WDR92 / Fold change vs veh, WDR92 / RFU, CUX1 / Fold change vs veh, CUX1 / RFU, TTC7A / Fold change vs veh, TTC7A / RFU, TMEM135 / Fold change vs veh, TMEM135 / RFU, DEPTOR / Fold change vs veh, DEPTOR / RFU, CPM / Fold change vs veh, CPM / RFU, DNAJB6 / Fold change vs veh, DNAJB6 / RFU, CACNA2D3 / Fold change vs veh, CACNA2D3 / RFU, DTX4 / Fold change vs veh, DTX4 / RFU, TFCP2 / Fold change vs veh, TFCP2 / RFU, GMCL1 /// GMCL1P1 / Fold change vs veh, GMCL1 /// GMCL1P1 / RFU, AEBP2 / Fold change vs veh, AEBP2 / RFU, SNHG1 /// SNORD22 /// SNORD25 /// SNORD26 /// SNORD27 /// SNORD28 /// SNORD29 /// SNORD31 / Fold change vs veh, SNHG1 /// SNORD22 /// SNORD25 /// SNORD26 /// SNORD27 /// SNORD28 /// SNORD29 /// SNORD31 / Fold change (Aza/veh), C12orf56 (ProbeSet 11735607_a_at) / Fold change (ACY-1035/veh), C12orf56 (ProbeSet 11735607_a_at) / Fold change (Aza/veh), FGFR1OP (ProbeSet 11751329_s_at) / Fold change (ACY-1035/veh), FGFR1OP (ProbeSet 11751329_s_at) / Fold change (Aza/veh), VPS36 (ProbeSet 11739960_a_at) / Fold change (ACY-1035/veh), VPS36 (ProbeSet 11739960_a_at) / RFU SYPL1 (11715823_x_at) / Fold change /veh SYPL1 (11715823_x_at) / RFU IGFBP7 (11715501_s_at) / Fold change /veh IGFBP7 (11715501_s_at) / RFU REEP3 (11722064_at) / Fold change /veh REEP3 (11722064_at) / RFU IGLL1 (11728026_x_at) / Fold change /veh IGLL1 (11728026_x_at): dose or concentration left out as unconfirmed
# Conditions: MV-4-11 cells, 48 hours
smiles,measurement,value
Nc1ccc(-c2cccs2)cc1NC(=O)c1ccc2c(c1)cc(C1CC1)n2CCN1CCOCC1 [ACY-1035],Fold change /veh CD79A (11719716_a_at),1.12
